Assay results taken from patent US20160000849A1, “COMPOSITION FOR REMEDYING OR TREATING RHEUMATOID ARTHRITIS AND OSTEOARTHRITIS” (HANPOONG PHARM & FOODS CO., LTD., priority 2013, published 2016).

Test system: normal 293T cells, rat chondrocytes and human chondrocytes (HTB-94)
Procedure: The stabilities of glucosamine-HCl, glucosamine-sulfate, celecoxib and HPL-1 were analyzed by an MTT assay using normal 293T cells, rat chondrocytes and human chondrocytes (HTB-94).

Compound	concentration at which cytotoxicity was observed (human, rat) [ng/mL]	cytotoxicity
Cc1ccc(-c2cc(C(F)(F)F)nn2-c2ccc(S(N)(=O)=O)cc2)cc1 [celecoxib]	≥ 10000	–
Cl.N[C@H]1C(O)O[C@H](CO)[C@@H](O)[C@@H]1O (stereo partly drawn) [glucosamine-HCl]	–	no cytotoxicity was observed
N[C@H]1C(O)O[C@H](CO)[C@@H](O)[C@@H]1O.O=S(=O)(O)O (stereo partly drawn) [glucosamine-sulfate]	–	no cytotoxicity was observed
